According to patent publication US5217961A, “Condensed quinoline system N-glycosides” (Mect Corporation, priority 1988, dated 1993):

Assays:
[1] = test system: P-388; assay: Effect on prolongation of life span in cancer implanted mouse (P-388); assay type: in vivo, CDF mouse; details: day 1 and day 5, P-388 i.p.; for responders at 100 mg/kg / responders at 200 mg/kg / responders at 25 mg/kg / responders at 50 mg/kg / responders at 12.5 mg/kg / cure (mice cured / mice in group) / responders at 400 mg/kg: 6 mice/group; for responders at 100 mg/kg / responders at 200 mg/kg / responders at 25 mg/kg / responders at 50 mg/kg / responders at 12.5 mg/kg / responders at 400 mg/kg: read-out: cure (mice cured / mice in group) (converted)
Protocol: Animal used: CDF mouse (6 mice/group)
Number of implanted cells: 10^6 cells/mouse
Day of administration: Day 1 and Day 5
Dosage: LD50 or 400 mg/kg/day at the maximum

[2] = test system: KB cells; assay: Function for inhibiting multiplication of KB cell (in vitro test); assay type: cell-based, human; details: compound added day 1, cells counted day 4, effective when ED50 < 4 μg/ml, 4320 min
Protocol: KB cells, carcinomatous cell tumors, were transferred to in vitro floatation incubator systems, and added respectively with compounds of Examples 1 to 33. The results of cultivation added with these compounds were compared with the results of the control which was not added with any compound.
Cell used: KB Cell (Originating from human mouth epidermal cancer)
Culture medium: Eagles minimal essential medium (MEM) supplemented with 10% calf serum
Cultivation: 37° C. carbon dioxide gas incubator (5% CO2)
Day 0: KB cells were diluted in the culture medium to adjust the KB cell density to 2×10^4 /ml. Three ml of the cell suspension was inoculated in each of 60 mm plastic dishes. Two dishes per standard dosage were used.
Day 1: Test compound was added to the medium so that the final concentrations were set to 100, 30, 10, 3 and 1 μg/ml.
Day 4: Cells were scraped off from the dish using trypsin, and the cell number was countered using a Corter counter.
In generally accordance with the stipulations set forth by the National Cancer Institute (NCI) U.S.A., the concentration of compound necessary for exerting 50% growth inhibition (ED50) compared to the contral was determined.

[3] = J. Med. Chem. vol.17, 922 (1974); cited from earlier work
[4] = 25 mg/kg, effective when T/C >= 120%
[5] = 50 mg/kg, effective when T/C >= 120%
[6] = Mus musculus, P388, ip, 100 mg/kg
[7] = Mus musculus, P388, ip, 200 mg/kg
[8] = Mus musculus, P388, ip, 25 mg/kg
[9] = Mus musculus, P388, ip, 50 mg/kg
[10] = Mus musculus, P388, ip, 12.5 mg/kg
[11] = Mus musculus, P388, ip, 50 mg/kg, effective when T/C >= 120%, read-out: Ratio of Life Prolongation (%) (T/C %)
[12] = 12.5 mg/kg, effective when T/C >= 120%
[13] = Mus musculus, P388, ip, 400 mg/kg

## 6-(4-methanesulfonamide-anilino)-indeno[3,2-b]quinoline [Compound 5]
[1]; [4]
  Ratio of Life Prolongation (%) (T/C %): 140%
[1]; [5]
  Ratio of Life Prolongation (%) (T/C %): 135%
[1]; 100 mg/kg, effective when T/C >= 120%
  Ratio of Life Prolongation (%) (T/C %): 163%
[1]; 200 mg/kg, effective when T/C >= 120%
  Ratio of Life Prolongation (%) (T/C %): 172%
[1]; 400 mg/kg, effective when T/C >= 120%
  Ratio of Life Prolongation (%) (T/C %): 165%
[2]
  Conc. (ED50), concentration necessary for exerting 50% growth inhibition of KB cells: < 0.3 µg/mL

## COc1cc(NS(C)(=O)=O)ccc1Nc1c2ccccc2nc2ccccc12 [Amsacrine, N-[4-(9-acridylamino)-3-methoxyphenyl)methanesulfonamide]
[3]
  carcinostatic function: highest carcinostatic function

## COc1cc(NS(C)(=O)=O)ccc1Nc1c2c(nc3c(C)cccc13)-c1c(C)cccc1C2 [Compound 1, 6-4-(methanesulfonamide-2-methoxyanilino)-1,10-dimethylindeno[3,2-b]quinoline]
[1]; [6]
  responders at 100 mg/kg: 16.7%
[1]; [7]
  responders at 200 mg/kg: 16.7%

## COc1cc(NS(C)(=O)=O)ccc1Nc1c2c(nc3c(C)cccc13)-c1ccccc1C2 [Compound 2, 6-4-(methanesulfonamide-2-methoxyanilio)-10-methylindeno[3,2-b]quinoline]
[1]; [6]
  responders at 100 mg/kg: 16.7%

## CN(C)c1cc(NS(C)(=O)=O)ccc1Nc1c2c(nc3ccccc13)-c1ccccc1C2 [Compound 6, 6-(4-methanesulfonamide-2-dimethylaminoanilino)-indeno[3,2-b]quinoline]
[1]; [7]
  responders at 200 mg/kg: 33.3%

## COc1cc(NS(C)(=O)=O)ccc1Nc1c2cccc(C)c2nc2c1[nH]c1ccccc12 [Compound 9]
[1]; [8]
  responders at 25 mg/kg: 16.7%
[1]; [9]
  responders at 50 mg/kg: 66.7%

## COc1cc(NS(C)(=O)=O)ccc1Nc1c2cccc(C)c2nc2c1[nH]c1cccc(C)c12 [Compound 10, 6-(4-methanesulfonamide-2-methoxyanilino)-1,10-dimethylindolo[3,2-b]quinoline]
[1]; [6]
  responders at 100 mg/kg: 16.7%

## COc1cc(NS(C)(=O)=O)ccc1Nc1c2cccc(C)c2nc2c1[nH]c1cc(C)ccc12 [Compound 11, 6-(4-methanesulfonamide-2-methoxyanilino)-3,10-dimethylindolo[3,2-b]quinoline]
[1]; [10]
  responders at 12.5 mg/kg: 16.7%
[1]; [8]
  responders at 25 mg/kg: 33.3%
[1]; [9]
  responders at 50 mg/kg: 16.7%

## COc1cc(NS(C)(=O)=O)ccc1Nc1c2ccccc2nc2c1[nH]c1ccc(Cl)cc12 [Compound 12]
[1]; [8]
  responders at 25 mg/kg: 16.7%
[1]; [9]
  responders at 50 mg/kg: 16.7%

## COC(=O)Nc1ccc(Nc2c3ccccc3nc3c2[nH]c2ccccc23)c(OC)c1 [Compound 14]
[1]; [6]
  responders at 100 mg/kg: 16.7%

## COc1cc(NC(C)=O)ccc1Nc1c2ccccc2nc2c1[nH]c1ccccc12 [Compound 15]
[1]; [6]
  responders at 100 mg/kg: 16.7%

## COc1cc(NS(C)(=O)=O)ccc1Nc1c2ccccc2nc2c1[nH]c1cccc(C)c12 [Compound 16, 6-(4-methanesulfonamide-2-methoxyanilino)-1-mehtylindolo[3,2-b]quinoline]
[1]; [10]
  responders at 12.5 mg/kg: 33.3%
[1]; [8]
  responders at 25 mg/kg: 33.3%

## COc1cc(NS(C)(=O)=O)ccc1Nc1c2ccccc2nc2c1[nH]c1ccc([N+](=O)[O-])cc12 [Compound 18, 6-(4-methanesulfonamide-2-methoxyanilino)-2-nitroindolo[3,2-b]quinoline]
[1]; [10]
  responders at 12.5 mg/kg: 16.7%
[1]; Mus musculus, P388, ip, 12.5 mg/kg, effective when T/C >= 120%, read-out: Ratio of Life Prolongation (%) (T/C %)
  response vs control in vivo at 12.5 mg/kg: 164%
[1]; Mus musculus, P388, ip, 25 mg/kg, effective when T/C >= 120%, read-out: Ratio of Life Prolongation (%) (T/C %)
  response vs control in vivo at 25 mg/kg: 131%
[1]; [11]
  response vs control in vivo at 50 mg/kg: 70%

## COc1cc(NS(C)(=O)=O)ccc1Nc1c2ccccc2nc2c1[nH]c1ccc(F)cc12 [Compound 19, 2-fluoro-6-(4-methanesulfonamide-2-methoxyanilino)indolo[3,2-b]quinoline]
[1]; [10]
  responders at 12.5 mg/kg: 50%
[1]; [8]
  responders at 25 mg/kg: 33.3%
[1]; [11]
  response vs control in vivo at 50 mg/kg: 93%

## COc1cc(O)ccc1Nc1c2ccccc2nc2c1[nH]c1ccccc12 [Compound 20]
[1]; [8]
  responders at 25 mg/kg: 16.7%
[1]; [11]
  response vs control in vivo at 50 mg/kg: 202%

## COc1cc(OC(C)=O)ccc1Nc1c2ccccc2nc2c1[nH]c1ccccc12 [Compound 21]
[1]; [9]
  responders at 50 mg/kg: 16.7%
[1]; Mus musculus, P388, ip, 100 mg/kg, effective when T/C >= 120%, read-out: Ratio of Life Prolongation (%) (T/C %)
  response vs control in vivo at 100 mg/kg: 212%

## COc1cc(NS(C)(=O)=O)ccc1Nc1c2ccccc2nc2c1[nH]c1ccc(N)cc12 [Compound 22, 2-amino-6-(4-methanesulfonamide-2-methoxyanilino)indolo[3,2-b]quinoline]
[1]; [9]
  responders at 50 mg/kg: 16.7%
[1]; [11]
  response vs control in vivo at 50 mg/kg: 242%

## COc1cc(NS(C)(=O)=O)ccc1Nc1c2ccccc2nc2c1[nH]c1ccc(NC3OC(COC(C)=O)C(OC(C)=O)C(OC(C)=O)C3OC(C)=O)cc12 (centres unmarked) [Compound 23, N-{4-[(7-(2,3,4,6-tetra-O-acetylglycosyl-1-amino)-10H-indolo[3,2-b]quinoline-11-yl)amino]-3-methoxyphenyl} methanesulfonamide]
[1]; 12.5 mg/kg
  cure (mice cured / mice in group): 2/6
[1]; [12]
  Ratio of Life Prolongation (%) (T/C %): 300%
[1]; 25 mg/kg
  cure (mice cured / mice in group): 1/6
[1]; [4]
  Ratio of Life Prolongation (%) (T/C %): 148%
[1]; [5]
  Ratio of Life Prolongation (%) (T/C %): 58%
[2]
  Conc. (ED50), concentration necessary for exerting 50% growth inhibition of KB cells: < 0.3 µg/mL

## COc1cc(NS(C)(=O)=O)ccc1Nc1c2ccccc2nc2c1[nH]c1ccc(NC3OC(CO)C(O)C(O)C3O)cc12 (centres unmarked) [Compound 24, N-{4-[(7-(glycosyl-1-amino)-10H-indolo[3,2-b]quinoline-11-yl)amino]-3-methoxyphenyl} methanesulfonamide]
[1]; 12.5 mg/kg
  cure (mice cured / mice in group): 2/6
[1]; [12]
  Ratio of Life Prolongation (%) (T/C %): 213%
[1]; [4]
  Ratio of Life Prolongation (%) (T/C %): 145%
[1]; [5]
  Ratio of Life Prolongation (%) (T/C %): 90%
[2]
  Conc. (ED50), concentration necessary for exerting 50% growth inhibition of KB cells: < 0.3 µg/mL

## COc1cc(NS(C)(=O)=O)ccc1Nc1c2ccccc2nc2c1[nH]c1ccc(NC(C)=O)cc12 [Compound 25]
[1]; [11]
  response vs control in vivo at 50 mg/kg: 184%

## COc1cc(NS(C)(=O)=O)ccc1Nc1c2ccccc2nc2c1[nH]c1ccc(NS(C)(=O)=O)cc12 [Compound 26, 2-methanesulfonamide-6-(4-methanesulfonamide-2-methoxyanilino)indolo[3,2-b]quinoline]
[1]; [11]
  response vs control in vivo at 50 mg/kg: 143%

## COc1cc(NS(C)(=O)=O)ccc1Nc1c2cccc(C)c2nc2c1oc1ccccc12 [Compound 27, 6-(4-methanesulfonamide-2-methoxyanilino)-10-methylbenzofurano[3,2-b]quinoline]
[1]; [7]
  responders at 200 mg/kg: 16.7%
[1]; [13]
  responders at 400 mg/kg: 33.3%
[1]; Mus musculus, P388, ip, 400 mg/kg, effective when T/C >= 120%, read-out: Ratio of Life Prolongation (%) (T/C %)
  response vs control in vivo at 400 mg/kg: 310%

## COc1cc(NS(C)(=O)=O)ccc1Nc1c2cccc(C)c2nc2c1oc1cccc(C)c12 [Compound 28, 6-(4-methanesulfonamide-2-methoxyanilino)-1,10-dimethylbenzofurano[3,2-b]quinoline]
[1]; Mus musculus, P388, ip, 200 mg/kg, effective when T/C >= 120%, read-out: Ratio of Life Prolongation (%) (T/C %)
  response vs control in vivo at 200 mg/kg: 103%

## COc1cc(NS(C)(=O)=O)ccc1Nc1c2cccc(C)c2nc2c1oc1cc(C)ccc12 [Compound 29, 6-(4-methanesulfonamide-2-methoxyanilino)-3,10-dimethylbenzofurano[3,2-b]quinoline]
[1]; [6]
  responders at 100 mg/kg: 16.7%
[1]; [7]
  responders at 200 mg/kg: 16.7%

## COc1cc(NS(C)(=O)=O)ccc1Nc1c2ccccc2nc2c1oc1cc(C)ccc12 [Compound 31, 6-(4-methanesulfonamide-2-methoxyanilino)-3-methylbenzofurano[3,2-b]quinoline]
[1]; [7]
  responders at 200 mg/kg: 16.7%
[1]; [13]
  responders at 400 mg/kg: 16.7%

## COc1cc(NS(C)(=O)=O)ccc1Nc1c2ccccc2nc2c1sc1cccc(C)c12 [Compound 33, 6-(4-methanesulfonamide-2-methoxyanilino)-1-methylbenzothieno[3,2-b]quinoline]
[1]; [7]
  responders at 200 mg/kg: 16.7%
[1]; [13]
  responders at 400 mg/kg: 16.7%
